In US20100015126A1, “Methods of Binding of Cross-Beta Structures By Chaperones” (priority 2006, published 2010):

Legend:
[1] = biological target: T1, human mitochondrial HSP60 (Homo sapiens, UniProt P10809); assay: Competition ELISA: HSP60 binding under influence of ThT or Congo red; conditions: concentration series of compound
T1 construct: Dr. W. van Eden, Utrecht University; host or cells: E. coli

HUVECs [2] = assay: FACS: binding of misfolded proteins and BiP to HUVECs; type: cell-based, human
Protocol: For these experiments HUVECs were isolated by trypsinization. After trypsinization cells were collected in RPMI 1640, containing P/S and 10% FCS and centrifuged. After centrifugation cells were resuspended in RPMI medium without FCS at a concentration of 1.250.000 cells/250 μl. Individual 4-ml tubes (polypropylene, Greiner), containing 250 μl cell suspensions were made. To each tube 75 μl of a sample, containing either, • a. buffer (PBS) only, or • b. 25 μl PBS+50 μl BiP (1.16 mg/ml), or • c. 50 μl buffer with 25 μl oxLDL (1 mg/ml), or • d. 74 μl buffer with 1 μl BSA-AGE (25 mg/ml), or • e. 24 μl PBS+1 μl BSA-AGE (25 mg/ml)+50 μl BiP (1.16 mg/ml), or • f. 25 μl oxLDL (1 mg/ml)+50 μl BiP (1.16 mg/ml), • g. 1.6 μl dIgIV-65 (20 mg/ml)+73.4 μl PBS • h. […]
was added. Subsequently, the cells were incubated with the sample for approximately 30 minutes at 4° C. Next, cells were pelleted by centrifugation and the supernatant was discarded. Cells were washed subsequently with FACS buffer (PBS/0.5% BSA/0.05% m/v NaN3) at 4° C. and resuspended in FACS-buffer at approximately 1*10^5 cells/100 μl for subsequent analysis. Cell death was determined by adding 3 μl 7-aminoactinomycin D (7AAD) solution (prepared according to standard procedures). Binding of sample BSA-AGE (see elsewhere in this application for preparation details) was determined with anti-AGE monoclonal antibody 4B5 (10 μg/ml) and, after washing, with goat anti-mouse PE secondary antibodies (Jackson Immunoresearch, West Grove, USA). Binding of BSA-AGE was also assessed using the intrinsic fluorescence of BSA-AGE in the PE channel. Binding of oxidized LDL (oxLDL, oxidized for 56% following incubation with FeSO4; specific enhancement of Thioflavin T fluorescence) was determined with rabbit serum with anti-ApoB100 polyclonal antibodies at a concentration of 160 μg/ml and, after washing the cells, with FITC-labelled goat anti-rabbit antibodies (1:200, Jackson). Binding of dIgIV-65 was assessed by using anti-Human IgG antibody. BiP binding was determined using the earlier mentioned anti-FLAG antibody (M2, Sigma-Aldrich).

HUVECs [3] = assay: Adhesion of HUVECs to immobilized misfolded proteins under influence of BiP (LDH read-out); type: cell-based, human; conditions: for Number of adhered HUVECs after preincubation of coated protein with BiP: BiP approximately 200 μg/ml
Protocol: HUVECs are primary endothelial cells (ECs), isolated from umbilical cords using 0.1% collagenase (Sigma, C0130, 100 mg, dissolved in 100 ml M199 medium supplemented with 10% FCS (Gibco 10106-169) and Penicillin-Streptomycin (P/S, Gibco, 15140-122)), according to widespread used standard procedures known to a person skilled in the art. HUVECs have the typical features of ECs, e.g. cobblestone morphology and von Willebrand factor storage in Weibel-Palade bodies. HUVECs can regularly be cultured up to passage 5; beyond passage 5 HUVECs loose typical EC markers. The isolation is described here in brief. The umbilical cord is washed for less than 3 minutes in ethanol and subsequently with PBS. The vein is connected to canules and flushed with 10 ml PBS, followed by loading with the 0.1% collagenase solution. After a 15 minute-incubation at 37° C., the detached endothelial cell suspension is recovered by flushing the vein with 10 ml medium which is subsequently added to the collagenase solution. The EC suspension is centrifuged for 5 minutes at room temperature, at low g-force. Supernatant is discarded and the cell pellet is resuspended in 5 ml ‘rich medium’ (EGM-2; Endothelial basal medium (EBM-2, Cambrex, CC-3156) and Singlequots containing supplements for endothelial cells (Cambrex, CC-4176)). Cells (passage 0, P0) are seeded in a culture flask coated with 0.5% gelatin (Sigma, G1393). To facilitate the adhesion of the endothelial cells, human fibronectin is added to the cell culture at a final concentration of 2 μg/ml. EC's are cultured at 37° C., at 5% CO2. The cell culture medium is refreshed every 2-3 days up to when the cells grow to confluency. Then, with the addition of trypsin-EDTA, the cells are detached from the flask, centrifuged at low g-force, resuspended in rich medium and seeded in larger 0.5% gelatin-precoated cell culture flasks.
In 96-wells plates (Immulon high-binding plates, Thermo Labsystems 3355) proteins, i.e. BSA-AGE, control BSA, IgIV Gammagard, crossbeta dIgIV-86 at 5 μg/ml, 10 μg/ml misfolded oxLDL, or gelatin (Sigma G1393, 2% solution in H2O or PBS, positive control for adhesion to ECs) were coated using 100 μl solutions, in six wells for each condition. Following incubation for 2 hours at 37° C. the solutions were discarded and the wells blocked for 1 hour at 37° C. with 100 μl/well of 1% polyvinyl-pyrrolidone (PVP, Sigma P5288) in PBS, filter (0.22 μm) sterilized. […] Subsequently, the block solution was discarded. Next, the plates were incubated with 40 μl RPMI 1640 medium (Gibco, 52400) and 10 μl of the potential inhibitor, i.e. recombinant human BiP at approximately 200 μg/ml final concentration. HUVECs were obtained by trypsinization. […] The absorbance at 490 nm was measured on a Versamax microplate reader at various time points.

T1 sequence (P10809 27-573): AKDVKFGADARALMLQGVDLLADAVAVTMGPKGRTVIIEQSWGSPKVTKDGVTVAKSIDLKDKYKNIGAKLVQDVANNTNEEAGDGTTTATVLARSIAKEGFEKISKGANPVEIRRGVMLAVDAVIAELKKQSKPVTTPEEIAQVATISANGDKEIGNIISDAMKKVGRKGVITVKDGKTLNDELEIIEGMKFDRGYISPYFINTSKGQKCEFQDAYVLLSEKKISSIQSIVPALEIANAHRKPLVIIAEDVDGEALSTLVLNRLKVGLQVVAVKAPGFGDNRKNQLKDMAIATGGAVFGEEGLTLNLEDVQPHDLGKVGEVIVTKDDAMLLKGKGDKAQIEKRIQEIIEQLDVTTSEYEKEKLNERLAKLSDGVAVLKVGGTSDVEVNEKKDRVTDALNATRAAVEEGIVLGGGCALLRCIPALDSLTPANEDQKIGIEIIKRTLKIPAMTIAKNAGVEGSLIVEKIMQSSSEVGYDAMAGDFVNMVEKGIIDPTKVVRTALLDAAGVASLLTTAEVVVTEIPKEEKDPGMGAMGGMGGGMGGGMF

Nc1c(/N=N/c2ccc(-c3ccc(/N=N/c4cc(S(=O)(=O)O)c5ccccc5c4N)cc3)cc2)cc(S(=O)(=O)O)c2ccccc12 [Congo red]
Binding of HSP60 to Aβ42 under influence of compound ([1]; 10 or 30 μg/ml HSP60): inhibit | Binding of HSP60 to BSA-AGE under influence of compound ([1]; 10 or 30 μg/ml HSP60): inhibited

Cc1ccc2c(c1)sc(-c1ccc(N(C)C)cc1)[n+]2C.[Cl-] [ThT, Thioflavin T]
Binding of HSP60 to misfolded IgIV (dIgIV-86) under influence of compound ([1]; 10 μg/ml HSP60): stimulates | Binding of HSP60 to Aβ42 under influence of compound ([1]; 10 or 30 μg/ml HSP60): inhibit

BSA-AGE
Binding of misfolded protein to ECs (MFI ratio) (HUVECs [2]; absence of BiP, 30 minutes at 4° C.): 13.8 | Binding of misfolded protein to ECs (MFI ratio) (HUVECs [2]; presence of BiP): 10.2 | Number of adhered HUVECs after preincubation of coated protein with BiP (HUVECs [3]): hardly increase | Adhesion of HUVECs to coated protein (HUVECs [3]; without BiP, LDH activity after lysis): to a similar extent as to gelatin

native BSA: non-modified bovine serum albumin control
Number of adhered HUVECs after preincubation of coated protein with BiP (HUVECs [3]): hardly increase
